In ChEMBL document CHEMBL1201862, “PubChem BioAssay data set” (2004):
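In this assay, cells in 96-well plates receive the compound at five concentrations for 48 hours. Endpoints are linearly interpolated between the surrounding concentrations. GI50: concentration for 50% inhibition of growth.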 Activity calls are given as the source filed them. Rule as the data show it: active = GI50 up to about 1.1 µM and inactive = higher.

Columns and labels:
Experiment in all cases: inhibition of tumour cell growth, NCI panel, 48 h
SNB-75 = test system: SNB-75
A498 = test system: A498
U-251 = test system: U-251
Malme-3M = test system: Malme-3M
SF-268 = test system: SF-268
SW-620 = test system: SW-620
IGROV-1 = test system: IGROV-1
NCI-H23 = test system: NCI-H23
M19-MEL = test system: M19-MEL
TK-10 = test system: TK-10
NCI-H460 = test system: NCI-H460
HCT-15 = test system: HCT-15
SK-MEL-2 = test system: SK-MEL-2
SF-539 = test system: SF-539
CAKI-1 = test system: CAKI-1
OVCAR-8 = test system: OVCAR-8
UACC-62 = test system: UACC-62

| Structure (SMILES) | GI50 (SNB-75) | GI50 (A498) | GI50 (U-251) | GI50 (Malme-3M) | GI50 (SF-268) | GI50 (SW-620) | GI50 (IGROV-1) | GI50 (NCI-H23) | GI50 (M19-MEL) | GI50 (TK-10) | GI50 (NCI-H460) | GI50 (HCT-15) [µM] | GI50 (SK-MEL-2) | GI50 (SF-539) | GI50 (CAKI-1) | GI50 (OVCAR-8) | GI50 (UACC-62) |
| --- | --- | --- | --- | --- | --- | --- | --- | --- | --- | --- | --- | --- | --- | --- | --- | --- | --- |
| O=c1[nH]n2c(=O)cc[nH]c2c1-c1nnns1 | > 100 µM (inactive) | > 100 µM (inactive) | > 100 µM (inactive) | > 100 µM (inactive) | > 100 µM (inactive) | > 100 µM (inactive) | > 100 µM (inactive) | > 100 µM (inactive) | > 100 µM (inactive) | > 100 µM (inactive) | > 100 µM (inactive) | > 100 | > 100 µM (inactive) | > 100 µM (inactive) | > 100 µM (inactive) | – | – |
| NCCn1cnc2nc(NC(=O)c3ccccc3)[nH]c(=O)c21 | 45.7 µM (inactive) | > 100 µM (inactive) | > 100 µM (inactive) | > 100 µM (inactive) | > 100 µM (inactive) | > 100 µM (inactive) | > 100 µM (inactive) | > 100 µM (inactive) | > 100 µM (inactive) | > 100 µM (inactive) | > 100 µM (inactive) | > 100 | > 100 µM (inactive) | > 100 µM (inactive) | – | > 100 µM (inactive) | – |
| COc1ccc2c(c1OCC(=O)O)C(=O)C(CCC(=O)O)CC2 (stereo not given) | > 100 µM (inactive) | > 100 µM (inactive) | > 100 µM (inactive) | – | – | > 100 µM (inactive) | > 100 µM (inactive) | > 100 µM (inactive) | > 100 µM (inactive) | > 10 µM (inactive) | > 100 µM (inactive) | > 100 | – | > 100 µM (inactive) | > 100 µM (inactive) | > 100 µM (inactive) | > 100 µM (inactive) |
| O=C1C(=O)N(C2C3CC4CC(C3)CC2C4)C(=O)C(=O)C1c1nc2ccccc2o1 (stereo not given) | 33.1 µM (inactive) | – | 23.1 µM (inactive) | 36 µM (inactive) | 92.9 µM (inactive) | 55 µM (inactive) | 42.3 µM (inactive) | 41.6 µM (inactive) | 55 µM (inactive) | > 100 µM (inactive) | > 100 µM (inactive) | 43.6 | > 100 µM (inactive) | 90.6 µM (inactive) | > 100 µM (inactive) | > 100 µM (inactive) | > 100 µM (inactive) |
| CC1(c2cccc3ccccc23)OC(=O)c2ccccc21 (stereo not given) | 10 µM (inactive) | 21.5 µM (inactive) | 20 µM (inactive) | 20.7 µM (inactive) | 25.5 µM (inactive) | 21 µM (inactive) | 19.2 µM (inactive) | 16 µM (inactive) | 21.3 µM (inactive) | 70.6 µM (inactive) | 21.1 µM (inactive) | 18.6 | 21.3 µM (inactive) | 14.6 µM (inactive) | 15 µM (inactive) | 28.1 µM (inactive) | 12 µM (inactive) |
| Cc1nn(C)c(=S)n(C)c1=O | 0.329 µM (active) | 3.22 µM (inactive) | 1.75 µM (inactive) | 2.89 µM (inactive) | 0.56 µM (active) | 1.79 µM (inactive) | 1 µM (active) | 0.483 µM (active) | 0.624 µM (active) | 4.69 µM (inactive) | 0.394 µM (active) | 3.76 | 0.733 µM (active) | 0.83 µM (active) | – | 0.571 µM (active) | 0.757 µM (active) |
| CC(=O)Oc1ccc2c(=O)c(C(C)=O)coc2c1 | – | 58.1 µM (inactive) | > 100 µM (inactive) | – | > 100 µM (inactive) | > 100 µM (inactive) | > 100 µM (inactive) | > 100 µM (inactive) | > 100 µM (inactive) | > 100 µM (inactive) | > 100 µM (inactive) | > 100 | > 100 µM (inactive) | > 100 µM (inactive) | > 100 µM (inactive) | > 100 µM (inactive) | – |
| Cc1ccc(/C=N/C23CC4CC(CC(C4)C2)C3)cc1 | 44.8 µM (inactive) | > 100 µM (inactive) | > 100 µM (inactive) | 25.1 µM (inactive) | > 100 µM (inactive) | > 100 µM (inactive) | > 100 µM (inactive) | > 100 µM (inactive) | > 100 µM (inactive) | > 100 µM (inactive) | > 100 µM (inactive) | > 100 | 85.7 µM (inactive) | > 100 µM (inactive) | > 100 µM (inactive) | > 100 µM (inactive) | – |
| O=c1c2c(nc3n1CCC3)sc1c(O)c(Br)ccc12 | > 100 µM (inactive) | 10.5 µM (inactive) | 20.2 µM (inactive) | 17.5 µM (inactive) | 60.4 µM (inactive) | 12.5 µM (inactive) | 24.1 µM (inactive) | 27 µM (inactive) | 16.3 µM (inactive) | 19.1 µM (inactive) | 16.4 µM (inactive) | 18.6 | 20.7 µM (inactive) | 15.5 µM (inactive) | > 100 µM (inactive) | 10.7 µM (inactive) | 17.4 µM (inactive) |
